Laboratory results: US20240115554A1, “METHODS FOR TREATING OBSTRUCTIVE HYPERTROPHIC CARDIOMYOPATHY” (Cytokinetics, Incorporated, priority 2022, published 2024)
“And” between values parts separate entries of the source, which are not always exact repeats. Equal values may be shown once. “Also recorded” adds a separate entry of the source.

Legend:
[1] = system: patients with symptomatic obstructive HCM (oHCM); test: Phase 2 trial: safety and tolerability
Text: Seventeen investigative sites in North America and Europe screened for patients to enroll in Cohorts 1 and 2.
The first two cohorts (Cohort 1 and Cohort 2) excluded patients receiving disopyramide. Cohort 3 included patients receiving disopyramide. […] Overall, the treatment duration was 10 weeks with a 4-week follow-up period after the last dose.

[2] = system: patients with symptomatic oHCM; test: Open-label extension: cardiac biomarkers (NT-proBNP, hs-cTnI); type: in vivo, human; details: Week 48
Method: At Weeks 4, 6, 12, and every 12 weeks thereafter, each patient has an echocardiogram or truncated echocardiogram following administration of their dose (a truncated echocardiogram at weeks 4 and 6; and an echocardiogram at week 12 and every 12 weeks thereafter) to determine whether additional dose titration is needed (see Table 21 and Table 22). Patient reported outcomes, laboratory assessments, measurements of NT-proBNP, hs-cTnI, and other biomarkers are performed at week 12 and every 12 weeks thereafter. Ambulatory cardiac monitoring is performed on weeks 48, 96, 144, 192 and 240 Cardiac magnetic resonance is monitored at weeks 48, 144 and 240. If a patient develops an LVEF <40% after the Week 2 visit, a repeat echocardiogram may be performed to confirm the initial finding (preferably within 24 hours). If the echocardiography findings are confirmed, the patient will undergo a ≥2-day drug holiday.

[3] = system: patients with symptomatic obstructive HCM (oHCM); test: Phase 2 trial: echocardiography (LVOT-G, LVEF, cardiac remodeling); type: in vivo, human; details: for patients achieving resting gradient <30 mmHg and post-Valsalva gradient <50 mmHg at Week 10 (complete hemodynamic response): n=14
Text: Cohort 3 included patients receiving disopyramide.
Since patient characteristics vary substantially in this disease, individualized dose titration to a pharmacodynamics (PD) response (reduction of the LVOT-G to <30 mmHg with preservation of LVEF >50%) was employed to maximize efficacy and safety.
Patients up-titrated to Dose 2 if either of the following conditions were met on echocardiography: (1) resting LVOT-G ≥30 mmHg and the biplane LVEF ≥50%; or (2) resting LVOT-G <30 mmHg, post-Valsalva LVOT-G ≥50 mmHg, and the biplane LVEF ≥50%. Otherwise, the patient remains on Dose 1. If LVEF is <50% at Week 2, the patient was down-titrated to placebo.
Patients were escalated to the next higher dose if either of the following conditions were met on echocardiography: (1) resting LVOT-G ≥30 mmHg and the biplane LVEF ≥50%; or (2) resting LVOT-G <30 mmHg, post-Valsalva LVOT-G ≥50 mmHg, and the biplane LVEF ≥50%. Otherwise, the patient remained on the same dose. If LVEF was <50% at Week 4, the patient was returned to a prior dose level or to placebo if the patient was on Dose 1.
Echocardiograms obtained every 2 weeks and 2 weeks after the last dose were analyzed for several key structural and physiologic metrics and N-terminal prohormone of brain natriuretic peptide (NT-proBNP).
Overall, treatment duration for each patient in the study was 10 weeks with an echocardiogram conducted 2 weeks after the last dose.
Secondary results from the clinical study included data from Cohort 3 (n=13). […] Overall, treatment duration for each patient in the study was 10 weeks with an echocardiogram conducted 2 weeks after the last dose. Efficacy endpoints included resting and provoked LVOT gradients, NYHA class, and NT-proBNP.

[4] = system: patients with symptomatic oHCM; test: Open-label extension: global longitudinal strain (GLS) by echocardiography; type: in vivo, human; details: baseline −13.9%±3.2
Method: GLS analysis was performed using a vendor-neutral analysis package (TOMTEC® Imaging Systems).

[5] = system: patients with symptomatic oHCM; test: Open-label extension: NYHA functional class; type: in vivo, human
Method: NYHA Functional Classification is recorded. When available, patients will complete patient-reported outcome (PRO) questionnaires: Kansas City Cardiomyopathy Questionnaire (KCCQ), Seattle Angina Questionnaire-7 (SAQ-7), EuroQol 5-Dimension 5-Level Instrument (EQ-5D-5L), Patient's Global Impression of Change (PGI-C) Scale, Clinical Global Impressions (CGI) Scale, SF-36 Physical Functioning Subscale (SF-36 PFS) as specified in Table 23.

[6] = system: patients with symptomatic oHCM; test: Open-label extension: Kansas City Cardiomyopathy Questionnaire (KCCQ); type: in vivo, human
Method: Change in KCCQ scores from baseline, including OSS=overall summary score, CSS=clinical summary score, TSS=total symptom score, PLS=physical limitation score, SLS=social limitation score, QoL=quality of life, were determined. Patients were categorized with worsened (≤−5 points), unchanged (−5 to <5 points), small improvement (5 to <10 points), moderate to large improvement (10 to <20 points), and large to very large improvement (≥20 points) relative to baseline.

[7] = Cohort 1, 21 randomized 2:1 aficamten (5, 10, 15 mg once daily) or placebo, 10 weeks
[8] = Cohort 2, 20 randomized 2:1 aficamten (10, 20, 30 mg once daily) or placebo, 10 weeks
[9] = Cohort 3, 13 patients, aficamten (5, 10, 15 mg once daily) on top of disopyramide, 10 weeks
[10] = Total, Cohorts 1-3, 54 patients
[11] = Cohort 3 (with disopyramide), n=13
[12] = baseline to week 10, pooled aficamten
[13] = by week 48, Examples 3a and 3b interim

CCc1nc(-c2ccc3c(c2)CC[C@H]3NC(=O)c2cnn(C)c2)no1 [aficamten, (R)—N-(5-(5-ethyl-1,2,4-oxadiazol-3-yl)-2,3-dihydro-1H-inden-1-yl)-1-methyl-1H-pyrazole-4-carboxamide]
patients with LVEF <50% ([1]; Cohort 1): No patients | Patients with TEAEs leading to drug interruption or termination [1, 7]: 0 N | Patients with fatal TEAEs [1, 7]: 0 N | TEAE of LVEF <50% (Core Lab) [1, 7]: 0 N | patients with transient LVEF reduction to <50% requiring down titration ([1]; Cohort 2, 20 mg): one patient | Patients with TEAEs leading to drug interruption or termination [1, 8]: 0 N | Patients with TESAEs [1, 8]: 0 N | Patients with fatal TEAEs [1, 8]: 0 N | changes in QTc interval or vital signs ([1]; Cohort 3): no significant changes in QTc interval, or vital signs | moderate adverse events recorded ([1]; Cohort 3): six | patients with LVEF <50% ([1]; Cohort 3): No patients experienced LVEF <50% | serious adverse events, dose interruptions, discontinuations ([1]; Cohort 3): no serious adverse events attributed to treatment; also recorded: no dose interruptions, treatment discontinuations, or serious adverse events | Patients with TEAEs leading to drug interruption or termination [1, 9]: 0 N | Patients with TESAEs [1, 9]: 0 N | Patients with fatal TEAEs [1, 9]: 0 N | TEAE of LVEF <50% (Core Lab) [1, 9]: 0 N | adverse event of asymptomatic atrial fibrillation ([1]; Cohort 3, patient with known prior history): One | interruptions or discontinuations of treatment ([1]; Cohorts 1 and 2): no treatment interruptions; also recorded: No interruptions or discontinuations | new cases of atrial fibrillation ([1]; Cohorts 1 and 2): No new cases of atrial fibrillation | severity of adverse events ([1]; Cohorts 1 and 2): mild or moderate | treatment related serious adverse events ([1]; Cohorts 1 and 2): No serious adverse events were attributed to aficamten; also recorded: no treatment related serious adverse events | reversibility of LVEF effect after end of treatment ([1]; Phase 2 cohorts): returned towards baseline within two weeks after the end of treatment; also recorded: returned to baseline after the 2-week washout | Patients with TEAEs leading to drug interruption or termination [1, 10]: 0 N | Patients with fatal TEAEs [1, 10]: 0 N | NT pro-BNP reduction from baseline [2]: 70% | patients achieving resting gradient <30 mmHg and post-Valsalva gradient <50 mmHg at Week 10 (complete hemodynamic response) ([3]; Cohort 1 (5, 10, 15 mg)): 78.6% and 79% | average resting LVOT-G at 10 weeks ([3]; Cohort 1 (n=14), 53.8 mmHg at baseline): 13.4 mmHg | average Valsalva LVOT-G at 10 weeks ([3]; Cohort 1 (n=14), 77.4 mmHg at baseline): 38.1 mmHg | average ejection fraction at 10 weeks ([3]; Cohort 1 (n=14), baseline 72.8% (73±6%)): 67.3% and 67±9% | patients achieving resting gradient <30 mmHg and post-Valsalva gradient <50 mmHg at Week 10 (complete hemodynamic response) ([3]; Cohort 2 (10, 20, 30 mg)): 92.9% and 93% | average resting LVOT-G at 10 weeks ([3]; Cohort 2 (n=14), 58.2 mmHg at baseline): 15.1 mmHg | average Valsalva LVOT-G at 10 weeks ([3]; Cohort 2 (n=14), 82.3 mmHg at baseline): 29.8 mmHg | average ejection fraction at 10 weeks ([3]; Cohort 2 (n=14), baseline 75.4% (75±6%)): 64.1% and 64±8% | patients with complete or partial response in LVOT gradients at end of treatment ([3]; Cohort 3 (Ten of 13)): 77% | patients with temporary complete or partial response during the treatment period ([3]; Cohort 3 (Three patients)): 23% | mean (SD) reduction of resting LVOT-G at Week 10 [3, 11]: 27 mmHg | mean reduction of Valsalva LVOT-G at Week 10 [3, 11]: 28 mmHg | mean LVEF at end of 10-week treatment ([3]; Cohort 3 (with disopyramide), baseline 74±7.5%): 69±7.2% | dose dependence of reductions in LVOT-G ([3]; Cohorts 1 and 2): dose dependent | onset of reductions in LVOT-G ([3]; Cohorts 1 and 2): within two weeks of initiating treatment | mean reduction in EF per mg of aficamten ([3]; Cohorts 1 and 2, dose vs EF over time): −0.6 % per mg | change in e′ [3, 12]: 0.5 cm/s | change in lateral E/e′ [3, 12]: −2.0 (±1.1) | LVMI mean difference, aficamten vs placebo ([3]; week 10): 8.1 g/m^2 | GLS ([4]; week 12 (n=27)): −14.3±3.0% | GLS ([4]; week 36-48 (n=27)): −14.9% | patients with worsening in NYHA class from baseline ([5]; Example 3a, preliminary): No patients | patients with NYHA class improvement of one or more classes ([5]; Example 3a, up to 6 months): about 80% | patients with NYHA FC worsening [5, 13]: none | patients with ≥1 NYHA FC improvement [5, 13]: 88% | patients in NYHA class II ([5]; week 12 (baseline 47%), Example 3a): 52% | patients in NYHA class III ([5]; week 12 (baseline 53%), Example 3a): 7% | patients in NYHA class I ([5]; week 12, Example 3a): 41% | patients in NYHA class I ([5]; week 24, Example 3a): 56% | patients in NYHA class II ([5]; week 24, Example 3a): 39% | patients in NYHA class III ([5]; week 24, Example 3a): 6% | participants with clinically-important improvement (5 points on the KCCQ Overall Summary Score) ([6]; Week 12): 72.7% | participants with very large clinical improvements in KCCQ ([6]; Week 12): 36.4% | participants with clinically-important improvement (5 points on the KCCQ Overall Summary Score) ([6]; Week 24): 72.0% | participants with very large clinical improvements in KCCQ ([6]; Week 24): 40.0% | improvement in KCCQ domain scores ([6]; up to 6 months): marked and sustained improvement in all KCCQ domain scores
